The source of these data is patent US20060058312A1, “Stabilized aqueous preparation for injection” (priority 2004, published 2006).

The nature of data set [1]: Change of pH value of the aqueous solution during storage. It is filed as physicochemical. Conditions: added to aqueous solution of the calcium salt, pH 6 to 7, during storage.
The nature of data set [2]: Transmittance and coloring of the aqueous solution during storage. It counts as physicochemical. Conditions: added to aqueous solution of the calcium salt, during storage. From the text: The suppressing effect can be attained by the action of ascorbic acid which has been stabilized by sodium pyrosulfite.

As to `O=C1O[C@H]([C@@H](O)CO)C(O)=C1O` [ascorbic acid], the “suppression of the change of the pH value to the acid region” value in data set [1] is “effectively be suppressed”. Also, the “suppression of the lowering of the transmittance and the coloring” value in data set [2] is “effectively be suppressed”.
